Target: T1, mCD1d (Mus musculus, UniProt P11609)
T1 sequence (P11609 22-305 limits assumed): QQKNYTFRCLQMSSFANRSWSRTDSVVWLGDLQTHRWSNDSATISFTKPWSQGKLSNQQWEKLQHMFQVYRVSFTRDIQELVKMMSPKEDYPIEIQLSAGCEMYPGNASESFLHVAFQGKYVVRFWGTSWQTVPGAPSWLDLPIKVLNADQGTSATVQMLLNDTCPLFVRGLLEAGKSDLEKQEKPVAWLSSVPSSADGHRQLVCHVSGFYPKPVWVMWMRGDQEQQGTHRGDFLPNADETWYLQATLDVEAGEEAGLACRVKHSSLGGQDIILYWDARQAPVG
T1 sequence (P01887 21-119 partner): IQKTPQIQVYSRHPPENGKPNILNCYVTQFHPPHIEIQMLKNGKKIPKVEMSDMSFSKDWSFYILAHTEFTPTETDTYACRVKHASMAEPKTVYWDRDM
Assay: SPR of soluble TCR binding to glycolipid-loaded mCD1d

SMILES: CCCCCCCCCCCCCCCCCCCCCCCCCC(=O)N[C@@H](CO[C@H]1O[C@H](CO)[C@H](O)[C@H](O)[C@H]1O)[C@H](O)[C@H](O)CCCCCCCCCCCCCC [compound 1, α-GalCer]
- Kd: 12.8 nM
